{"source": "paper PMC5862592", "about": "“CDK8/19 inhibition induces premature G1/S transition and ATR-dependent cell death in prostate cancer cells” (Oncotarget, 2018)", "assay_in_all_cases": "biochemical", "design_in_all_cases": "KINOMEscan active site-directed competition binding assay (DiscoveRx), 456 kinases, per cent of control at 300 nM", "settings_in_all_cases": "read-out: Percent of Control (%)", "key": {"[1]": {"biological_target": "RIOK1 (Homo sapiens, UniProt Q9BRS2)", "sequence (Q9BRS2 whole entry)": "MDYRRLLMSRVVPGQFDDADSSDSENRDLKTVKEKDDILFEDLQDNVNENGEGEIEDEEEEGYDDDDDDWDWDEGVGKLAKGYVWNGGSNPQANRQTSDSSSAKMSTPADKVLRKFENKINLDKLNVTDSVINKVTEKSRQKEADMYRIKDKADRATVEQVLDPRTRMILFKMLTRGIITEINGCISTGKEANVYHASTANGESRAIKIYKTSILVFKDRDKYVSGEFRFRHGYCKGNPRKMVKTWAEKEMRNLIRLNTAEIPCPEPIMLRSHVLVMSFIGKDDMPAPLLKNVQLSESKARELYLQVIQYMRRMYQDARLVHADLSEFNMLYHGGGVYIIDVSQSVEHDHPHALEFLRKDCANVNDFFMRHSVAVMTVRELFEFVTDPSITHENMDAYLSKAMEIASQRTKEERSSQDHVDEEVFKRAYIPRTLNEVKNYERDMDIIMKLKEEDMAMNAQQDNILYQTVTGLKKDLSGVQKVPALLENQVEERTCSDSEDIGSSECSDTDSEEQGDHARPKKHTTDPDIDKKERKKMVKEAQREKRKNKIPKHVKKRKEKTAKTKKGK", "procedure": "(§1) Kinase selectivity of T-474 and T-418 was evaluated at 300 nmol/L using a panel of 456 kinases at DiscoveRx (KINOMEscan). The platform employs an active site-directed competition binding assay to quantitatively measure interactions between test compounds and kinases. […] In VCaP prostate cancer cells, treatment with T-474 or T-418 suppressed the phosphorylation of the known CDK8 substrate STAT1 at Ser727 both in the absence and in the presence of IFN-γ (Figure 1B), which stimulates CDK8-mediated STAT1 phosphorylation."}, "[2]": {"biological_target": "MYLK4 (Homo sapiens, UniProt Q86YV6)", "procedure": "as §1"}, "[3]": {"biological_target": "CASK (Homo sapiens, UniProt O14936)", "procedure": "as §1"}, "[4]": {"biological_target": "T1, MST3 (Homo sapiens, UniProt Q9Y6E0)", "T1 construct": "gene STK24", "procedure": "as §1"}, "[5]": {"biological_target": "INSRR (Homo sapiens, UniProt P14616)", "procedure": "as §1"}, "[6]": {"biological_target": "EGFR(T790M) (Homo sapiens, UniProt P00533, T790M)", "procedure": "as §1"}, "[7]": {"biological_target": "MARK3 (Homo sapiens, UniProt P27448)", "procedure": "as §1"}, "[8]": {"biological_target": "CAMK1G (Homo sapiens, UniProt Q96NX5)", "sequence (Q96NX5 whole entry)": "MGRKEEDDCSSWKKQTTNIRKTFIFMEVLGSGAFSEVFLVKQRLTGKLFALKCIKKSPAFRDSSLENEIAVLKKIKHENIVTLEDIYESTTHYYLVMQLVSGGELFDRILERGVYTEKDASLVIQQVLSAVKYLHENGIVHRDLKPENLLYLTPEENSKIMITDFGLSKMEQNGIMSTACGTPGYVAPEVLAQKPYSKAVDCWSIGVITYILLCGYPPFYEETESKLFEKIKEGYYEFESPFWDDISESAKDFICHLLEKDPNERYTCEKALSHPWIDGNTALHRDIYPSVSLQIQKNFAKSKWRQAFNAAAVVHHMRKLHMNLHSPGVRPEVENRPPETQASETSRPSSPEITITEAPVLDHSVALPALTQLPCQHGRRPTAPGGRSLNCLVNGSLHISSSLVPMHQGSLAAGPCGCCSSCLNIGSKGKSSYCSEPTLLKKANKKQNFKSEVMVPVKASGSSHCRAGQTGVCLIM", "procedure": "as §1"}, "[9]": {"biological_target": "MAP4K2 (Homo sapiens, UniProt Q12851)", "sequence (Q12851 whole entry)": "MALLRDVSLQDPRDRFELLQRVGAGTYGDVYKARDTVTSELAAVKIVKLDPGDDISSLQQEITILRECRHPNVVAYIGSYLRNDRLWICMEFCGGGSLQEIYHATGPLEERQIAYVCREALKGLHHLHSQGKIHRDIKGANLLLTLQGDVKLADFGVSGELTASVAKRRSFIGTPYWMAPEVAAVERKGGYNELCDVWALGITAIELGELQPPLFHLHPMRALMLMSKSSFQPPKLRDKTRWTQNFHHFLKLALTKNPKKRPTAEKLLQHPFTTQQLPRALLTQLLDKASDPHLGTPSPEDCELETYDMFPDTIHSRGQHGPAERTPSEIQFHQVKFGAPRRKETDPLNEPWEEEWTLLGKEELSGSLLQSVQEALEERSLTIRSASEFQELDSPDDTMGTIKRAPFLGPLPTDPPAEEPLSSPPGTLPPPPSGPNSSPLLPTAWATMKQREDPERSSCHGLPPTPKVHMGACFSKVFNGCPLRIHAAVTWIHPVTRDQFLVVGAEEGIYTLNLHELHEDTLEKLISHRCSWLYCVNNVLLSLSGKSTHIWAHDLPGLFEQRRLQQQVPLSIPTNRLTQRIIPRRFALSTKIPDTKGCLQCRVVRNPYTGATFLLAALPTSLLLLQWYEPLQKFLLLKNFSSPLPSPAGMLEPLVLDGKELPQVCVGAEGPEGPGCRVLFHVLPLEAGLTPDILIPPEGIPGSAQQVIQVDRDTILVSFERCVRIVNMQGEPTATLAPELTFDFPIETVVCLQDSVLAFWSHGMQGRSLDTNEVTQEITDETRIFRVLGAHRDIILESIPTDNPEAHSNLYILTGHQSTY", "procedure": "as §1"}, "[10]": {"biological_target": "EPHB3 (Homo sapiens, UniProt P54753)", "procedure": "as §1"}, "[11]": {"biological_target": "PHKG2 (Homo sapiens, UniProt P15735)", "sequence (P15735 whole entry)": "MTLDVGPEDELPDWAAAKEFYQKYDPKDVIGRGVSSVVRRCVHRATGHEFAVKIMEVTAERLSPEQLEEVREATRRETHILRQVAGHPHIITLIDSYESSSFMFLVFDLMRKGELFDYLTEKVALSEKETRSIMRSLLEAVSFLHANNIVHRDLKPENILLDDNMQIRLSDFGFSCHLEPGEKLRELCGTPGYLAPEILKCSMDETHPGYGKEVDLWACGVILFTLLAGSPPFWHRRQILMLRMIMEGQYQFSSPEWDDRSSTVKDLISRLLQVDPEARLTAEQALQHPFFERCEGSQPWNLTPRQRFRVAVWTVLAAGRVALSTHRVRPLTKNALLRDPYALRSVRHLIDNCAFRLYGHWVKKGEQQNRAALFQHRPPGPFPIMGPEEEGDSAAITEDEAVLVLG", "procedure": "as §1"}, "[12]": {"biological_target": "T2, ERK5 (Homo sapiens, UniProt Q13164)", "T2 construct": "gene MAPK7", "procedure": "as §1"}, "[13]": {"biological_target": "FGFR2 (Homo sapiens, UniProt P21802)", "sequence (P21802 whole entry)": "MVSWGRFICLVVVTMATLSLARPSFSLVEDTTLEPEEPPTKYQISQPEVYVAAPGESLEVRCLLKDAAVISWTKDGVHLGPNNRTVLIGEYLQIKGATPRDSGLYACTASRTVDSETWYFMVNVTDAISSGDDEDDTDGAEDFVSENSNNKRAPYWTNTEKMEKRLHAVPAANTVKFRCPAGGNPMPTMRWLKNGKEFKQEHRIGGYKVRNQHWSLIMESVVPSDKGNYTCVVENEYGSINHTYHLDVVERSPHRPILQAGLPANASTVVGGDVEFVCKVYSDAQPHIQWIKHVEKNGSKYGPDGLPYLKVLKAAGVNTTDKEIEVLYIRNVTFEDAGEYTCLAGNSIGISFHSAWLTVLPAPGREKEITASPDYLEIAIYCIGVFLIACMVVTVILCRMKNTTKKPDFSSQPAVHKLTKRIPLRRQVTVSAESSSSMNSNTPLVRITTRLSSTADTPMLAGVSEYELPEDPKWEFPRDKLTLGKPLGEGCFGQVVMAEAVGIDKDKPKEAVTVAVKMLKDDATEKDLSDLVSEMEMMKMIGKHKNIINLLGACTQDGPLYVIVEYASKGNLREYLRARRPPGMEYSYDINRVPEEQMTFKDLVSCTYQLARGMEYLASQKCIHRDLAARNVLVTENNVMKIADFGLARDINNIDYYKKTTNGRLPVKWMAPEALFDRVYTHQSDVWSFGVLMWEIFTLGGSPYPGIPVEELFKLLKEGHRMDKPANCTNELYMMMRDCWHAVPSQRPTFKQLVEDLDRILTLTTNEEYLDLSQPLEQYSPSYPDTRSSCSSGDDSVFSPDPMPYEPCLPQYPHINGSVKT", "procedure": "as §1"}, "[14]": {"biological_target": "KIT(V559D,V654A) (Homo sapiens, UniProt P10721, V559D/V654A)", "procedure": "as §1"}, "[15]": {"biological_target": "FGFR3(G697C) (Homo sapiens, UniProt P22607, G697C)", "sequence (P22607 whole entry G697C)": "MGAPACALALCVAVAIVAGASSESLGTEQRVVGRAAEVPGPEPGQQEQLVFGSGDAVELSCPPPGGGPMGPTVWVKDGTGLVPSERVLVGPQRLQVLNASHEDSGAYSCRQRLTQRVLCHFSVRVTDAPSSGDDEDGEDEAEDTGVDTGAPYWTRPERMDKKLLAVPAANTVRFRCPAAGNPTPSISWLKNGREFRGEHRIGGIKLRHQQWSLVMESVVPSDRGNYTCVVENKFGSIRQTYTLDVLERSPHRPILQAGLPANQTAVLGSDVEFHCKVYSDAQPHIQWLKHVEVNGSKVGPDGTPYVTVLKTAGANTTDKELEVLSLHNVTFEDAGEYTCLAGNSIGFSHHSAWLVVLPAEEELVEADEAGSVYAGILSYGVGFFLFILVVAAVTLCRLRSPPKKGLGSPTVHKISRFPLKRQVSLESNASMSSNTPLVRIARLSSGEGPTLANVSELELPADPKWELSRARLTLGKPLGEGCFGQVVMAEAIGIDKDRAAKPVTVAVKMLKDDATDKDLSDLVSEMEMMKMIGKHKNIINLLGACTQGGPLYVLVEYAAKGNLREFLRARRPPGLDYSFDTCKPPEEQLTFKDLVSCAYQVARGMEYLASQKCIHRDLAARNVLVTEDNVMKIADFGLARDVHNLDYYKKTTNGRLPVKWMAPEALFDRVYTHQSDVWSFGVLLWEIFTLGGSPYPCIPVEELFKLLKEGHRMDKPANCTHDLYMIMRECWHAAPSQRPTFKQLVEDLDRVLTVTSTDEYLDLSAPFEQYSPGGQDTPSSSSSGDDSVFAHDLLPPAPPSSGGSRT", "procedure": "as §1"}, "[16]": {"biological_target": "SRPK1 (Homo sapiens, UniProt Q96SB4)", "procedure": "as §1"}, "[17]": {"biological_target": "EPHA4 (Homo sapiens, UniProt P54764)", "procedure": "as §1"}, "[18]": {"biological_target": "T3, YANK3 (Homo sapiens, UniProt Q86UX6)", "T3 construct": "gene STK32C", "procedure": "as §1"}, "[19]": {"biological_target": "TAOK1 (Homo sapiens, UniProt Q7L7X3)", "sequence (Q7L7X3 whole entry)": "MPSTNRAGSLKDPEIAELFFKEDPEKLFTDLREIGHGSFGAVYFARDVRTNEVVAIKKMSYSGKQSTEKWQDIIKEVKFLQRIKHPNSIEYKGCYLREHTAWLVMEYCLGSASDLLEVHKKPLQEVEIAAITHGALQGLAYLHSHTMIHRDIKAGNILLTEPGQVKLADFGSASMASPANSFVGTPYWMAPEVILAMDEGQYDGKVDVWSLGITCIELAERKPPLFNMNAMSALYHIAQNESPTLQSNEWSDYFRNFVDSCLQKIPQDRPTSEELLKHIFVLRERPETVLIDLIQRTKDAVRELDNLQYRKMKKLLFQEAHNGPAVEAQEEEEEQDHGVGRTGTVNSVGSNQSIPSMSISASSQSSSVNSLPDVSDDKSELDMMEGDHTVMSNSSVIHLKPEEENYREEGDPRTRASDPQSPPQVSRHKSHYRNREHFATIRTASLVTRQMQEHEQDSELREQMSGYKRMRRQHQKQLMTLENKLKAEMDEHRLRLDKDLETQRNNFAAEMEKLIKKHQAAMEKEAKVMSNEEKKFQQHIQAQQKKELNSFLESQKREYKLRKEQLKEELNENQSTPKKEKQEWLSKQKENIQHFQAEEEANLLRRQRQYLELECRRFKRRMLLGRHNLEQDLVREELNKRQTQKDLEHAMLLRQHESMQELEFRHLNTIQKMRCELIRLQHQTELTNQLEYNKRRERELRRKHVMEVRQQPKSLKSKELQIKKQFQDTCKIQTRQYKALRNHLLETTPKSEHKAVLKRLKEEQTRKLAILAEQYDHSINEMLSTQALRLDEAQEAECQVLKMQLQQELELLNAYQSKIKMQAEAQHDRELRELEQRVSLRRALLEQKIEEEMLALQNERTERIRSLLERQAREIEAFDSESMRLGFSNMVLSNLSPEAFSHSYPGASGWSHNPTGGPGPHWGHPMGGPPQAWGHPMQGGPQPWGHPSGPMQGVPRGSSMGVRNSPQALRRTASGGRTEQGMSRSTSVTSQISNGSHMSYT", "procedure": "as §1"}, "[20]": {"biological_target": "CAMK4 (Homo sapiens, UniProt Q16566)", "procedure": "as §1"}, "[21]": {"biological_target": "INSR (Homo sapiens, UniProt P06213)", "procedure": "as §1"}, "[22]": {"biological_target": "RET(V804M) (Homo sapiens, UniProt P07949, V804M)", "procedure": "as §1"}}, "note": "Where two headings read alike, the source gives them in different places."}
{"compound": "O=C(/C=C/c1cnccc1-c1ccc(F)cc1)Nc1ccc(CCc2nnco2)cc1", "note": "[T-418, (2E)-3-(4-(4-fluorophenyl)pyridin-3-yl)-N-(4-(2-(1,3,4-oxadiazol-2-yl)ethyl)phenyl)acrylamide]", "values": [{"measurement": "remaining binding at 0.3 µM", "setting": "[1]; sheet T-418", "result": 97, "unit": "%"}, {"measurement": "remaining binding at 0.3 µM", "setting": "[2]; sheet T-418", "result": 80, "unit": "%"}, {"measurement": "remaining binding at 0.3 µM", "setting": "[3]; sheet T-418", "result": 89, "unit": "%"}, {"measurement": "remaining binding at 0.3 µM", "setting": "[4]; sheet T-418", "result": 100, "unit": "%"}, {"measurement": "remaining binding at 0.3 µM", "setting": "[5]; sheet T-418", "result": 100, "unit": "%"}, {"measurement": "remaining binding at 0.3 µM", "setting": "[6]; sheet T-418", "result": 95, "unit": "%"}, {"measurement": "remaining binding at 0.3 µM", "setting": "[7]; sheet T-418", "result": 80, "unit": "%"}, {"measurement": "remaining binding at 0.3 µM", "setting": "[8]; sheet T-418", "result": 100, "unit": "%"}, {"measurement": "remaining binding at 0.3 µM", "setting": "[9]; sheet T-418", "result": 100, "unit": "%"}, {"measurement": "remaining binding at 0.3 µM", "setting": "[10]; sheet T-418", "result": 98, "unit": "%"}, {"measurement": "remaining binding at 0.3 µM", "setting": "[11]; sheet T-418", "result": 71, "unit": "%"}, {"measurement": "remaining binding at 0.3 µM", "setting": "[12]; sheet T-418", "result": 75, "unit": "%"}, {"measurement": "remaining binding at 0.3 µM", "setting": "[13]; sheet T-418", "result": 90, "unit": "%"}, {"measurement": "remaining binding at 0.3 µM", "setting": "[14]; sheet T-418", "result": 96, "unit": "%"}, {"measurement": "remaining binding at 0.3 µM", "setting": "[15]; sheet T-418", "result": 66, "unit": "%"}, {"measurement": "remaining binding at 0.3 µM", "setting": "[16]; sheet T-418", "result": 61, "unit": "%"}, {"measurement": "remaining binding at 0.3 µM", "setting": "[17]; sheet T-418", "result": 100, "unit": "%"}, {"measurement": "remaining binding at 0.3 µM", "setting": "[18]; sheet T-418", "result": 100, "unit": "%"}, {"measurement": "remaining binding at 0.3 µM", "setting": "[19]; sheet T-418", "result": 100, "unit": "%"}, {"measurement": "remaining binding at 0.3 µM", "setting": "[20]; sheet T-418", "result": 78, "unit": "%"}, {"measurement": "remaining binding at 0.3 µM", "setting": "[21]; sheet T-418", "result": 69, "unit": "%"}, {"measurement": "remaining binding at 0.3 µM", "setting": "[22]; sheet T-418", "result": 100, "unit": "%"}]}
{"compound": "Cc1ncccc1Oc1sc(C(N)=O)c2c1-c1c(cnn1C)CC2", "note": "[T-474, 1-methyl-8-((2-methylpyridin-3-yl)oxy)-4,5-dihydro-1H-thieno[3,4-g]indazole-6-carboxamide]", "values": [{"measurement": "remaining binding at 0.3 µM", "setting": "[1]", "result": 98, "unit": "%"}, {"measurement": "remaining binding at 0.3 µM", "setting": "[2]", "result": 90, "unit": "%"}, {"measurement": "remaining binding at 0.3 µM", "setting": "[3]", "result": 85, "unit": "%"}, {"measurement": "remaining binding at 0.3 µM", "setting": "[4]", "result": 100, "unit": "%"}, {"measurement": "remaining binding at 0.3 µM", "setting": "[5]", "result": 100, "unit": "%"}, {"measurement": "remaining binding at 0.3 µM", "setting": "[6]", "result": 100, "unit": "%"}, {"measurement": "remaining binding at 0.3 µM", "setting": "[7]", "result": 88, "unit": "%"}, {"measurement": "remaining binding at 0.3 µM", "setting": "[8]", "result": 100, "unit": "%"}, {"measurement": "remaining binding at 0.3 µM", "setting": "[9]", "result": 100, "unit": "%"}, {"measurement": "remaining binding at 0.3 µM", "setting": "[10]", "result": 100, "unit": "%"}, {"measurement": "remaining binding at 0.3 µM", "setting": "[11]", "result": 88, "unit": "%"}, {"measurement": "remaining binding at 0.3 µM", "setting": "[12]", "result": 98, "unit": "%"}, {"measurement": "remaining binding at 0.3 µM", "setting": "[13]", "result": 100, "unit": "%"}, {"measurement": "remaining binding at 0.3 µM", "setting": "[14]", "result": 100, "unit": "%"}, {"measurement": "remaining binding at 0.3 µM", "setting": "[15]", "result": 59, "unit": "%"}, {"measurement": "remaining binding at 0.3 µM", "setting": "[16]", "result": 100, "unit": "%"}, {"measurement": "remaining binding at 0.3 µM", "setting": "[17]", "result": 100, "unit": "%"}, {"measurement": "remaining binding at 0.3 µM", "setting": "[18]", "result": 100, "unit": "%"}, {"measurement": "remaining binding at 0.3 µM", "setting": "[19]", "result": 95, "unit": "%"}, {"measurement": "remaining binding at 0.3 µM", "setting": "[20]", "result": 100, "unit": "%"}, {"measurement": "remaining binding at 0.3 µM", "setting": "[21]", "result": 66, "unit": "%"}, {"measurement": "remaining binding at 0.3 µM", "setting": "[22]", "result": 100, "unit": "%"}]}
